# Where two headings read alike, the source gives them in different places.
# Legend:
# sigma receptors [1] = biological target: T1, sigma receptors (Homo sapiens, UniProt Q5BJF2); conditions: MCF-7 cells, Scatchard's analysis; cited from earlier work
# T1 construct: MCF-7 breast tumor cells express sigma receptors; host or cells: MCF-7 cells
# sigma receptor = conditions: guinea pig brain; cited from earlier work
# sigma receptors [2] = conditions: human breast and melanoma tumor cells; cited from earlier work
# [3] = tested on: non-melanoma cells in the liver and lung; conditions: cited from earlier work
# sigma-2 sites = biological target: T2, sigma-2 sites (Rattus norvegicus, UniProt Q5U3Y7); test: Sigma-2 binding in rat liver membrane preparation against [^3 H]DTG in the presence of dextrallorphan
# T2 construct: sigma-2 sites in rat liver membrane preparation; from tissue; host or cells: rat liver membranes
# T2 sequence (Q5U3Y7 1-176): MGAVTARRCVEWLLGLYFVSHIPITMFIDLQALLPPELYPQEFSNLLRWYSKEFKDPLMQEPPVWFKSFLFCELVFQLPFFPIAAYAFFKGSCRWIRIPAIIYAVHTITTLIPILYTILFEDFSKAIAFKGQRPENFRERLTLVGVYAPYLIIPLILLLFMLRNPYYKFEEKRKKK
# sigma receptors [4] = format: binding, human; conditions: T47D cells; for IC50: 37° C., 1 hr, against [Tc-99m]EN6, read-out: IC50 for inhibition of binding of [Tc-99m]EN6
# Method: T47D human ductal breast carcinoma cells were purchased from ATCC, Rockville, Md. and cultured in serum supplemented medium DMEM containing 10% heat inactivated fetal bovine serum (GIBCO) at 37° C. The cells were adherent and split weekly in a 1:20 ratio using trypsin/EDTA (GIBCO). The cells were then transferred to 24 well plates and allowed to be adherent and confluent (about 0.5 million cells) or the cells were grown in T75 cell culture flasks and were detached when they were confluent using trypsin/EDTA (0.025%) or scraped with a cell scraper in DMEM.
# Competition binding studies in human ductal breast cancer cells (T47D) were performed as follows. T47D cells were cultured in serum supplemented medium (RPMI-1640) containing 10% heat inactivated fetal bovine serum (GIBCO) at 37° C. The cells were adherent and split weekly in a 1:20 ratio using trypsin/EDTA (GIBCO). The cells were scraped using a cell scraper from T75 culture flasks and centrifuged in a Sorvall 6000B centrifuge at a speed of 4000 rpm. The growth medium was removed and the cell pellet was resuspended in […] serum free media.
# The affinity of compounds for sites labeled by [Tc-99m]EN6 in human breast cancer cells was determined by heterologous in-vitro competitive binding assays in whole cells. The following method was used: A small aliquot of the cell suspension (100 μL) was incubated with [Tc-99m]EN6 and varying concentrations to (10^-4 to 10^-12 M) of arylethylenediamines keeping a total volume 1.0 mL constant. The cells were incubated at 37° C. for 1 hr and subsequently filtered through a Brandel Cell harvester (Brandel, Gaithersburg, Md.) and washed with de-ionized cold water. The radioactivity associated with the cells on filters was counted on a Beckman (DP 5500) Gamma Counter.
# The data was analyzed with the iterative nonlinear least square curve fitting program GraphPAD Inplot (Graph PAD Software, San Diego, Calif.). The Cheng-Prussoff equation was then used to convert IC50 values to apparent K1 values.
# sigma-1 sites = biological target: T3, sigma-1 sites (Cavia porcellus, UniProt Q60492); test: Sigma-1 binding in guinea pig brain against [^3 H]-(+)-pentazocine
# T3 construct: sigma-1 sites in guinea pig brain; from tissue; host or cells: guinea pig brain
# T3 sequence (Q60492 whole entry): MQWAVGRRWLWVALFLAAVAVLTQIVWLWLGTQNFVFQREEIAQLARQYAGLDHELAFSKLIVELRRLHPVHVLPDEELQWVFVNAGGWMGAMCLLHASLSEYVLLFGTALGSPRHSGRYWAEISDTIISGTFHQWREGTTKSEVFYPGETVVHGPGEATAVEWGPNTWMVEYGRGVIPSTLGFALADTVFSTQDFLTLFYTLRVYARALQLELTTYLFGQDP
# [5] = tested on: sigma-1 and sigma-2 receptors; test: In-vivo blocking with BD1008 in Sprague-Dawley rats; conditions: 2 micromol BD1008 co-injected
# Method: Animal biodistribution and blocking studies were performed in rats as follows. Sprague Dawley rats (200-250 g) were anesthetized with ketamine/xylazine and injected intravenously with ^99m Tc-EN6, XXIII, ([…]) in 0.2 ml saline containing up to 20% ethanol solution. At 0.5, 1, and 4 hr post-injection blood samples were drawn by cardiac puncture and the rats were sacrificed thereafter by cardiectomy while under ketamine/xylazine anesthesia. The organs of interest were then excised, blotted with tissue paper, weighed and the radioactivity counted. The % injected dose/organ was determined by comparison of the tissue radioactivity with suitably diluted, known quantity aliquots of the injected dose. […] The animals were sacrificed at 4 hr post-injection and the organs of interest were removed and handled as above.
# S. B. Hellewell, et al., Rat liver and kidney contain high densities of sigma-1 and sigma-2 receptors: characterization by ligand binding and photoaffinity labeling, Eur. J. Pharmacol.--Mol. Pharmacol. Sect. 268:9-18 (1994), all of which are hereby incorporated by reference.
# T1 sequence (Q5BJF2 whole entry): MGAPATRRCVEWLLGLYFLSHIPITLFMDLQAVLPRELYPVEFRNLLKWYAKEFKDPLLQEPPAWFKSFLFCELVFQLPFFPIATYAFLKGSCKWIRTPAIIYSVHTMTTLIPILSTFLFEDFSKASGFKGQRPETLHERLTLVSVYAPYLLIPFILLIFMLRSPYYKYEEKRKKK
compound,measurement,setting,value
O=C(NC1CCN(Cc2ccccc2)CC1)c1ccc([125I])cc1 [4-[^125 I]-4-(N-benzylpiperidin-4-yl)-4-iodobenzamide],receptors per cell,sigma receptors [1],approximately a million
"CN(CCc1ccc([125I])cc1)CCN1CCCCC1 [4-[^125 I]PEMP, [^125 I]N-[2-(4-iodophenyl)ethyl]-N-methyl-2-(1-piperidinyl)ethylamine]",inhibition binding isotherms,sigma receptor,consistent with sigma receptor pharmacology
same,specific binding to the sigma receptors,sigma receptors [2],very high specific binding
"CCN(CC)CCNC(=O)c1ccc(I)cc1 [IDAB, N-(diethylaminoethyl)4-iodobenzamide]",uptake by non-melanoma cells,[3],taken up in high concentrations
CN(CCc1ccc(I)cc1)CCN1CCCCC1 [IPEMP],Ki,sigma-2 sites,15.2 ± 2.35 nM
same,inhibition of [Tc-99m]EN6 binding,sigma receptors [4],dose-dependent inhibition of binding
same,IC50,sigma receptors [4],59 ± 5 nM
same,Ki,sigma-1 sites,0.82 ± 0.13 nM
CN(CCc1ccc(Cl)c(Cl)c1)CCN1CCCC1 [BD1008],Ki,"sigma-2 sites; rat liver membrane, against [^3 H]DTG in the presence of dextrallorphan, read-out: Ki for sigma-2 sites",8.1 ± 2.2 nM
same,inhibition of binding of ^99m Tc-complex in the kidneys,"[5]; kidneys, 4 hr post-i.v. injection",about 60%
same,reduction of radioactivity in liver,"[5]; liver, 4 hr post-injection",34%
same,reduction of radioactivity in lungs,"[5]; lungs, 4 hr post-injection",48%
same,inhibition of [Tc-99m]EN6 binding,sigma receptors [4],dose-dependent inhibition of binding
same,IC50,sigma receptors [4],47 ± 2 nM

# — US5919934A, “Compounds, compositions, and methods for cancer imaging and therapy” (The George Washington University, priority 1997, dated 1999)
